Reference: patent publication US20150031674A1, “SERINE/THREONINE KINASE INHIBITORS” (GENENTECH, INC., priority 2013, published 2015)

Target: human recombinant PAK1-KD protein (Homo sapiens, UniProt Q13153)
Assay: PAK1-KD (Kinase Domain) IC50 Zlyte Assay (FRET peptide substrate phosphorylation)
Settings: Z'-LYTE, Biological Example 1
From the text: PAK1-KD (Kinase Domain) IC50 Zlyte Assay Protocol
Activity of human recombinant PAK1-KD protein may be assessed in vitro by assay of the phosphorylation of a FRET peptide substrate. Catalytically active human recombinant PAK1-KD protein is obtained by purification from Tini cells infected with a human PAK1-KD recombinant baculovirus expression vector.
The activity/inhibition of PAK1-KD was estimated by measuring the phosphorylation of a FRET peptide substrate (Ser/Thr19) labeled with Coumarin and Fluorescein using Z′-LYTE™ assay (Invitrogen). The peptide substrate is a consensus sequence ([sequence]) based on various PAK substrates reported in the scientific literature. […] Incubations were carried out at 22° C. in black polypropylene 384-well plates (Corning Costar).

Sequence of human recombinant PAK1-KD protein (Q13153 270-521 limits assumed): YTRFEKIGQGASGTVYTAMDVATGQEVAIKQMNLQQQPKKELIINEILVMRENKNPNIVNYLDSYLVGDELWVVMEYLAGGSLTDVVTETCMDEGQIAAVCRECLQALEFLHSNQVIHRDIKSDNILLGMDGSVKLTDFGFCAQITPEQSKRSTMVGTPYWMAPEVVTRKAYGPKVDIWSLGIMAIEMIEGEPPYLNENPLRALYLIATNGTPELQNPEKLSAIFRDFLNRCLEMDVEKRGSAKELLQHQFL

Ki	Structure (SMILES)
30.7 nM	CCNc1ncc2cc(-c3ccc(-c4cc(C)cnn4)cc3Cl)c(=O)n(C[C@H]3CC[C@H](N)CC3)c2n1 [Example I-77, 8-(((1R,4R)-4-Aminocyclohexyl)methyl)-6-(2-chloro-4-(5-methylpyridazin-3-yl)phenyl)-2-(ethylamino)pyrido[2,3-d]pyrimidin-7(8H)-one]
11.9 nM	CNc1ncc2cc(-c3ccc(-c4cccc(C)n4)cc3C)c(=O)n(CC3C4CN(C)CC43)c2n1 (stereo not shown) [Example I-186, 2-(methylamino)-8-[(3-methyl-3-azabicyclo[3.1.0]hexan-6-yl)methyl]-6-[2-methyl-4-(6-methyl-2-pyridyl)phenyl]pyrido[2,3-d]pyrimidin-7-one]
15.2 nM	CNc1ncc2cc(-c3ccc(-c4csc(C)n4)cc3Cl)c(=O)n(C[C@H]3OC[C@H](N)CO3)c2n1 [Example I-190, 8-[(5-amino-1,3-dioxan-2-yl)methyl]-6-[2-chloro-4-(2-methylthiazol-4-yl)phenyl]-2-(methylamino)pyrido[2,3-d]pyrimidin-7-one]
16 nM	Cc1cccc(-c2ccc(-c3cc4cnc(NC(C)C)nc4n(CC(=O)N4CCNCC4)c3=O)c(C)c2)n1 [Example I-78, 2-(Isopropylamino)-6-(2-methyl-4-(6-methylpyridin-2-yl)phenyl)-8-(2-oxo-2-(piperazin-1-yl)ethyl)pyrido[2,3-d]pyrimidin-7(8H)-one]
10.8 nM	Cc1cccc(-c2ccc(-c3cc4cnc(NC5COC5)nc4n(C[C@H]4CNCCO4)c3=O)c(Cl)c2)n1 [Example I-159, 6-[2-Chloro-4-(6-methyl-2-pyridyl)phenyl]-8-[[(2R)-morpholin-2-yl]methyl]-2-(oxetan-3-ylamino)pyrido[2,3-d]pyrimidin-7-one]
8.1 nM	Cc1cccc(-c2ccc(-c3cc4cnc(NC5COC5)nc4n(C[C@@H]4CNCCO4)c3=O)c(Cl)c2)n1 [Example I-188, 6-[2-chloro-4-(6-methyl-2-pyridyl)phenyl]-8-[[(2S)-morpholin-2-yl]methyl]-2-(oxetan-3-ylamino)pyrido[2,3-d]pyrimidin-7-one]
7.1 nM	CNc1ncc2cc(-c3ccc(-c4cccc(C)n4)cc3Cl)c(=O)n(CCC3CNCCS3(=O)=O)c2n1 (stereo not shown) [Example I-202, 6-[2-chloro-4-(6-methyl-2-pyridyl)phenyl]-8-[2-(1,1-dioxo-1 4-thiazinan-2-yl)ethyl]-2-(methylamino)pyrido[2,3-d]pyrimidin-7-one]
39.4 nM	CNc1ncc2cc(-c3ccc(-c4cncc(C)n4)cc3Cl)c(=O)n(CC(=O)N3CCC[C@H]3CN)c2n1 [Example I-154, 8-[2-[(2S)-2-(Aminomethyl)pyrrolidin-1-yl]-2-oxo-ethyl]-6-[2-chloro-4-(6-methylpyrazin-2-yl)phenyl]-2-(methylamino)pyrido[2,3-d]pyrimidin-7-one]
11.9 nM	CNc1ncc2cc(-c3ccc(-c4cncc(C)n4)cc3Cl)c(=O)n(CC[C@H]3OC[C@@H](N)CO3)c2n1 [Example I-172, 8-[2-(5-amino-1,3-dioxan-2-yl)ethyl]-6-[2-chloro-4-(6-methylpyrazin-2-yl)phenyl]-2-(methylamino)pyrido[2,3-d]pyrimidin-7-one]
77.8 nM	Cc1cncc(-c2ccc(-c3cc4cnc(NC5COC5)nc4n(CCOCCO)c3=O)c(Cl)c2)n1 [Example I-67, 6-[2-Chloro-4-(6-methylpyrazin-2-yl)phenyl]-8-[2-(2-hydroxyethoxy)ethyl]-2-(oxetan-3-ylamino)pyrido[2,3-d]pyrimidin-7-one]
11.8 nM	CCNc1ncc2cc(-c3ccc(-c4cncc(C)n4)cc3Cl)c(=O)n(CC3C4CN(C)CC43)c2n1 (stereo not shown) [Example I-128, 6-[2-chloro-4-(6-methylpyrazin-2-yl)phenyl]-2-(ethylamino)-8-[(3-methyl-3-azabicyclo[3.1.0]hexan-6-yl)methyl]pyrido[2,3-d]pyrimidin-7-one]
17.1 nM	CCNc1ncc2cc(-c3ccc(-c4cncc(C)n4)cc3Cl)c(=O)n(C3CCN(C(=O)CN)CC3)c2n1 [Example I-29, 8-(1-(2-Aminoacetyl)piperidin-4-yl)-6-(2-chloro-4-(6-methylpyrazin-2-yl)phenyl)-2-(ethylamino)pyrido[2,3-d]pyrimidin-7(8H)-one]
6.5 nM	Cc1cccc(-c2ccc(-c3cc4cnc(NC5COC5)nc4n(CCCCO)c3=O)c(C)c2)n1 [Example I-81, 8-(4-Hydroxybutyl)-6-[2-methyl-4-(6-methyl-2-pyridyl)phenyl]-2-(oxetan-3-ylamino)pyrido[2,3-d]pyrimidin-7-one]
27.5 nM	CCc1cc(-c2cncc(C)n2)ccc1-c1cc2cnc(NC)nc2n(CCOCCN)c1=O [Example I-129, 8-[2-(2-aminoethoxy)ethyl]-6-[2-ethyl-4-(6-methylpyrazin-2-yl)phenyl]-2-(methylamino)pyrido[2,3-d]pyrimidin-7-one]
18.5 nM	CNc1ncc2cc(-c3ccc(-c4cccc(C)n4)cc3Cl)c(=O)n(CCOC3CN(C)C3)c2n1 [Example I-196, 6-[2-chloro-4-(6-methyl-2-pyridyl)phenyl]-2-(methylamino)-8-[2-(1-methylazetidin-3-yl)oxyethyl]pyrido[2,3-d]pyrimidin-7-one]
313 nM	Cc1cncc(-c2ccc(-c3cc4cnc(N)nc4n(CCCCCN)c3=O)c(Cl)c2)n1 [Example I-88, 2-Amino-8-(5-aminopentyl)-6-[2-chloro-4-(6-methylpyrazin-2-yl)phenyl]pyrido[2,3-d]pyrimidin-7-one]

Ki	Structure (SMILES)
2.5 nM	Cc1cccc(-c2ccc(-c3cc4cnc(NCC(F)F)nc4n(CCC4CNCCO4)c3=O)c(C)c2)n1 (racemic) [Example I-126, 2-(2,2-Difluoroethylamino)-6-[2-methyl-4-(6-methyl-2-pyridyl)phenyl]-8-(2-morpholin-2-ylethyl)pyrido[2,3-d]pyrimidin-7-one]
19.8 nM	CNc1ncc2cc(-c3ccc(-c4cccc(C)n4)cc3Cl)c(=O)n(CC3CCN(C)CC3)c2n1 [Example I-175, 6-[2-chloro-4-(6-methyl-2-pyridyl)phenyl]-2-(methylamino)-8-[(1-methyl-4-piperidyl)methyl]pyrido[2,3-d]pyrimidin-7-one]
137 nM	CCNc1ncc2cc(-c3ccc(-c4cncc(C)n4)cc3Cl)c(=O)n(CC(=O)N3CCOCC3)c2n1 [Example I-26, 6-[2-chloro-4-(6-methylpyrazin-2-yl)phenyl]-2-(ethylamino)-8-(2-morpholino-2-oxo-ethyl)pyrido[2,3-d]pyrimidin-7-one]
19 nM	CNc1ncc2cc(-c3ccc(-c4cncc(C)n4)cc3Cl)c(=O)n(CCC3CCNC3=O)c2n1 (single isomer, unassigned) [Example I-103, 6-[2-Chloro-4-(6-methylpyrazin-2-yl)phenyl]-2-(methylamino)-8-[2-(2-oxopyrrolidin-3-yl)ethyl]pyrido[2,3-d]pyrimidin-7-one]
71.8 nM	CCNc1ncc2cc(-c3ccc(-c4cncc(C)n4)cc3Cl)c(=O)n(CCCCO)c2n1 [Example I-36, 6-[2-Chloro-4-(6-methylpyrazin-2-yl)phenyl]-2-(ethylamino)-8-(4-hydroxybutyl)pyrido[2,3-d]pyrimidin-7-one]
3.7 nM	CCNc1ncc2cc(-c3ccc(-c4cccc(C)n4)cc3Cl)c(=O)n(C3COC4(CCNC4)C3)c2n1 (stereo not shown) [Example I-121, 6-[2-Chloro-4-(6-methyl-2-pyridyl)phenyl]-2-(ethylamino)-8-(1-oxa-7-azaspiro[4.4]nonan-3-yl)pyrido[2,3-d]pyrimidin-7-one]
107 nM	CCNc1ncc2cc(-c3ccc(-c4cncc(C)n4)cc3Cl)c(=O)n(CC3(O)CCNCC3)c2n1 [Example I-54, 6-(2-Chloro-4-(6-methylpyrazin-2-yl)phenyl)-2-(ethylamino)-8-((4-hydroxypiperidin-4-yl)methyl)pyrido[2,3-d]pyrimidin-7(8H)-one]
24.4 nM	CCNc1ncc2cc(-c3ccc(-c4cncc(C)n4)cc3Cl)c(=O)n(C3COC4(CCNCC4)C3)c2n1 (stereo not shown) [Example I-59, 6-(2-Chloro-4-(6-methylpyrazin-2-yl)phenyl)-2-(ethylamino)-8-(1-oxa-8-azaspiro[4.5]decan-3-yl)pyrido[2,3-d]pyrimidin-7(8H)-one]
45.6 nM	Cc1cncc(-c2ccc(-c3cc4cnc(NC5COC5)nc4n(CCCCO)c3=O)c(Cl)c2)n1 [Example I-50, 6-[2-Chloro-4-(6-methylpyrazin-2-yl)phenyl]-8-(4-hydroxybutyl)-2-(oxetan-3-ylamino)pyrido[2,3-d]pyrimidin-7-one]
75.3 nM	CCNc1ncc2cc(-c3ccc(-c4cncc(C)n4)cc3Cl)c(=O)n(CCCCC(N)=O)c2n1 [Example I-49, 5-[6-[2-Chloro-4-(6-methylpyrazin-2-yl)phenyl]-2-(ethylamino)-7-oxo-pyrido[2,3-d]pyrimidin-8-yl]pentanamide]
6.82 nM	CNc1ncc2cc(-c3ccc(-c4cncc(C)n4)cc3Cl)c(=O)n(CC[C@H]3OC[C@H](N)CO3)c2n1 [Example I-177, 8-[2-(5-amino-1,3-dioxan-2-yl)ethyl]-6-[2-chloro-4-(6-methylpyrazin-2-yl)phenyl]-2-(methylamino)pyrido[2,3-d]pyrimidin-7-one]
3 nM	CNc1ncc2cc(-c3ccc(-c4cccc(C)n4)cc3C)c(=O)n(CCC3CNCCO3)c2n1 (single isomer, unassigned) [Example I-110]
136 nM	CCNc1ncc2cc(-c3ccc(-c4cncc(C)n4)cc3Cl)c(=O)n(CCN3CCN(C4COC4)CC3)c2n1 [Example I-23, 6-(2-chloro-4-(6-methylpyrazin-2-yl)phenyl)-2-(ethylamino)-8-(2-(4-(oxetan-3-yl)piperazin-1-yl)ethyl)pyrido[2,3-d]pyrimidin-7(8H)-one]
13.9 nM	CNc1ncc2cc(-c3ccc(-c4cncc(C)n4)cc3Cl)c(=O)n(CCOC3CNC3)c2n1 [Example I-46, 8-[2-(azetidin-3-yloxy)ethyl]-6-[2-chloro-4-(6-methylpyrazin-2-yl)phenyl]-2-(methylamino)pyrido[2,3-d]pyrimidin-7-one]
0.5 nM	Cc1cccc(-c2ccc(-c3cc4cnc(NC(C)C)nc4n(C[C@H]4CC[C@H](N)CC4)c3=O)c(Cl)c2)n1 [Example I-32, 8-[(4-aminocyclohexyl)methyl]-6-[2-chloro-4-(6-methyl-2-pyridyl)phenyl]-2-(isopropylamino)pyrido[2,3-d]pyrimidin-7-one]
